In US20030104473A1, “Common ligand mimics: benzimidazoles” (priority 2001, published 2003):
Like-named read-outs stand apart in the source and are kept apart here.

Experiments:
Assay type in all cases: biochemical
[1] = biological target: dihydrodipicolinate reductase (DHPR) (Escherichia coli, UniProt P04036); assay: DHPR kinetic assay, spectrophotometric oxidation of NADPH at 340 nm
Procedure: For DHPR analysis, the compounds were screened using a kinetic protocol that spectrophotometrically evaluates oxidation of NADPH.
Stock solutions of each of the reagents were prepared in the following concentrations. Dilutions of the stock solutions were prepared prior to running the assay in the concentrations indicated below. DHPR was diluted in 10 mM HEPES at a pH of 7.4. DHPS (dihydrodipicolinate synthase) was not diluted and was stored in eppindorf tubes.
The L-ASA (L-aspartate semialdehyde) solution was prepared in the following manner. […] stock solution of ASA was prepared. 100 μl of the ASA stock solution was mixed with 150 μl of concentrated NaHCO3 and 375 μl of H2O. For use in the assay, 28.8 mM L-ASA was equal to 625 μl of the solution. The L-ASA stock Aft solution was kept at a temperature of −20° C. After dilution, the pH of the 28.8 mM solution was checked and maintained between 1 and 2.
The DHPS reaction was monitored at 340 nm prior to and after addition of the inhibitor to detect background reaction with the inhibitor. The solution for background detection was a 945 μl solution containing 0.1 HEPES (pH 7.8), 1 mM pyruvate, 6 μM NADPH, 40 μM L-ASA, and 7 μl of 1 mg/ml DHPS at 25° C. in the volumes provided above. The sample solution was then mixed and incubated for 10 minutes. Next, 500 nM solutions of the inhibitors and enough DMSO to provide a final DMSO concentration of 5% of the total assay volume were added. The solution was mixed and incubated for an additional 6 minutes.
In DHPR samples, 5 μl of the diluted DHPR enzyme were added. The sample was mixed for 20 seconds and then the reaction was run for 10 minutes. After a 50 second lag, the samples were read in a Cary spectrophotometer at 340 nm. Reading of the samples was continued until 300 seconds. Cuvette #1 contained the control reaction (no inhibitor), and cuvette #2 contained the positive control reaction in which Cibacron Blue at 2.58 μM was substituted for inhibitor to yield 70 to 80% inhibition. The substrate was kept at a level at least 10 times the Km. The final concentration of L-ASA was about 1 mM.

[2] = biological target: 1-deoxy-D-xylulose-5-phosphate reductase (DOXPR) (Escherichia coli, UniProt P45568); assay: DOXPR kinetic assay, spectrophotometric oxidation of NADPH at 340 nm
1-deoxy-D-xylulose-5-phosphate reductase (DOXPR), sequence (P45568 whole entry): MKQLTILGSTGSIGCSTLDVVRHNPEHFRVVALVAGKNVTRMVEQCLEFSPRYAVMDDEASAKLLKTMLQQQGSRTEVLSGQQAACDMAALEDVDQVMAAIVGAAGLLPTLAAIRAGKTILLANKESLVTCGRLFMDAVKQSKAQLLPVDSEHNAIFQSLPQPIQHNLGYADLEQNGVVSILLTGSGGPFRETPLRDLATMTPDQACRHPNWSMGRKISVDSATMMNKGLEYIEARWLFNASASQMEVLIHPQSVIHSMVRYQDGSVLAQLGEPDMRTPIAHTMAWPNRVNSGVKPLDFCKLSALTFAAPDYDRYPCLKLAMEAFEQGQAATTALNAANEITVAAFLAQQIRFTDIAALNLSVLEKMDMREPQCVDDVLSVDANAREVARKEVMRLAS
Procedure: For DOXPR analysis, the compounds were screened using a kinetic protocol that spectrophotometrically evaluates oxidation of NADPH.
Stock solutions of each of the reagents were prepared in the following concentrations. Dilutions of the stock solutions were prepared prior to running the assay in the concentrations indicated below. DOXPR was diluted in 10 mM HEPES at a pH of 7.4.
The DOXPR reaction was monitored at 340 nm prior to and after addition of the inhibitor to detect background reaction with the inhibitor. Solutions of the inhibitors in DMSO were prepared to provide a final DMSO concentration of 5% of the total assay volume. These solutions were incubated for 6 minutes at 25° C. in a 990 μl of a solution containing 0.1 M HEPES, pH 7.4, 1 mM MnCl21.15 mM DOXP, and 8 μM NADPH. The oxidation reaction was then initiated with 10 μl of DOXP reductoisomerase (10 μg/ml). After the enzyme was added, the solution was mixed for 20 seconds, and the reaction was run for 10 minutes. After a 50 second lag, the samples were read in a Cary spectrophotometer at 340 nm. Reading of the samples was continued until 300 seconds. Cuvette #1 contained the control reaction (no inhibitor), and cuvette #2 contained the positive control reaction in which Cibacron Blue at 10.32 μM was substituted for inhibitor to yield 70 to 80% inhibition. The substrate was kept at a level at least 10 times the Km.

[3] = biological target: inosine-5′-monophosphate dehydrogenase (IMPDH); assay: IMPDH kinetic assay, spectrophotometric reduction of NAD+ at 340 nm; conditions: Example 13 oxidoreductase panel (FIG. 7)
Procedure: For IMPDH analysis, the compounds were screened using a kinetic protocol that spectrophotometrically evaluates reduction of NAD+.
(§1) Stock solutions of each of the reagents were prepared in the following concentrations. Dilutions of the stock solutions were prepared prior to running the assay in the concentrations indicated below.
The IMPDH reaction was monitored at 340 nm prior to and after addition of the inhibitor to detect background reaction with the inhibitor. Solutions of 100 μl of the inhibitors in DMSO were prepared to provide a final DMSO concentration of 5% of the total assay volume. These solutions were incubated for 6 minutes at 37° C. in a 992 μl of a solution containing 0.1 M Tris-HCl, pH 8.0, 0.25 M KCl, 0.3% glycerol, 30 μM NAD+, and 600 μM IMP (inosine monophosphate). The reaction was then initiated with 8 μl of IMPDH (0.75 μg/ml). After the enzyme was added, the solution was mixed for 20 seconds, and the reaction was run for 10 minutes. After a 50 second lag, the samples were read in a Cary spectrophotometer at 340 nm. Reading of the samples was continued until 300 seconds. Cuvette #1 contained the control reaction (no inhibitor), and cuvette #2 contained the positive control reaction in which Cibacron Blue was substituted for inhibitor. The substrate was kept at a level at least 10 times the Km.

[4] = biological target: Human Aldose Reductase (AR) (Homo sapiens, UniProt P15121); assay: AR kinetic assay, spectrophotometric measurement of enzyme activity at 340 nm; conditions: Example 13 oxidoreductase panel (FIG. 7)
Procedure: For AR analysis, the compounds were screened using a kinetic protocol that spectrophotometrically measures enzyme activity.
as §1
The AR reaction was monitored at 340 nm prior to and after addition of the inhibitor to detect background reaction with the inhibitor. Solutions of 100 μl of the inhibitors in DMSO were prepared to provide a final DMSO concentration of 5% of the total assay volume. These solutions were incubated for 5 minutes at 25° C. in a 990 μl of a solution containing 100 mM potassium phosphate, pH 7.5, 0.3 M ammonium sulfate, 1.0 mM ethylenediaminetetraacetic acid (EDTA), 3.8 μM B-Nicotinamide adenine dinucleotide phosphate (NADPH), 171 μM DL-glyceraldehyde and 0.1 mM DL-dithiothreitol. The reaction was then initiated with 10 μl of Human Aldose Reductase (1:5 dilution of 0.55 mg/ml). After the enzyme was added, the solution was mixed for 20 seconds, and the reaction was run for 10 minutes. After a 50 second lag, the samples were read in a Cary spectrophotometer at 340 nm. Reading of the samples was continued until 300 seconds. The final DMSO concentration in the cuvette was 5%. […]

dihydrodipicolinate reductase (DHPR), sequence (P04036 whole entry): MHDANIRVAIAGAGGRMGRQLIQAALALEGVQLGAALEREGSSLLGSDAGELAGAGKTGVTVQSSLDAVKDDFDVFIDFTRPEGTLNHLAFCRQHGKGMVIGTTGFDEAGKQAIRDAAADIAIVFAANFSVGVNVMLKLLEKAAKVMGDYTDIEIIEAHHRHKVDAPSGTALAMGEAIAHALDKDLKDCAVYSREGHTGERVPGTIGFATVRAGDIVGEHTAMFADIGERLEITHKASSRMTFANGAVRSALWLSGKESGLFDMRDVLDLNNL

Structure (SMILES) | IC50 ([1]; IC50 for DHPR, Example 13 oxidoreductase panel (FIG. 7)) | IC50 ([1]; IC50 for DHPR, Example 14, common ligand mimics (FIG. 8)) | IC50 [2] | IC50 [3] | IC50 ([1]; Example 13 oxidoreductase panel (FIG. 7), read-out: IC50 for DHPR) | IC50 ([1]; Example 14, common ligand mimics (FIG. 8), read-out: IC50 for DHPR) | IC50 ([2]; Example 13 oxidoreductase panel (FIG. 7), read-out: IC50 for DOXPR) | IC50 [4]
O=C(O)c1ccc(-c2ccc(-c3nc4cc([N+](=O)[O-])ccc4[nH]3)o2)cc1 [compound 6d, 4-[5-(5-nitro-1H-benzoimidazol-2-yl)-furan-2-yl]-benzoic acid] | > 75 µM | > 75 µM | 21.4 µM | 15.8 µM | – | – | – | –
O=C(O)c1ccc(-c2ccc(-c3nc4ccccc4[nH]3)o2)cc1 [compound 6b, 4-[5-(1H-benzoimidazol-2-yl)-furan-2-yl] benzoic acid] | – | – | – | 22 µM | > 48 µM | 32.6 µM | > 60 µM | 35 µM
